Source: US6395308B1, “Purified extract from Harpagophytum procumbens and/or Harpagophytum zeyheri dence” (Finzekberg GmbH & Co. KG, priority 1996, dated 2002)

What was measured:
[1] = stability in artificial gastric juice; type: in vitro ADME; conditions: both in pure form and in diluted form
[2] = stability in artificial intestinal juice; type: in vitro ADME; conditions: both in pure form and in diluted form

**Q.** With `C[C@]1(OC(=O)/C=C/c2ccccc2)C[C@@H](O)[C@]2(O)C=CO[C@@H](O[C@@H]3O[C@H](CO)[C@@H](O)[C@H](O)[C@H]3O)[C@@H]21` [harpagoside] as the compound, how does the “stability in artificial gastric juice” value [1] read?
**A.** stable for at least two hours

**Q.** And the “stability in artificial intestinal juice” value [2]?
**A.** stable for at least two hours
